Patent US20260028365A1 (BIOGEN MA INC., priority 2022, published 2026)
pIC50: −log10 of the molar value. Like-named read-outs stand apart in the source and are kept apart here.

How the values were obtained:
Tyk2 = Tyk2 (Homo sapiens (Human), UniProt P29597); assay: pSTAT4 Cell Assay (MSD, NK92 cells); assay type: cell-based
JH2 domain of human Tyk2 = JH2 domain of human Tyk2 (Homo sapiens (Human), UniProt P29597); assay: JH2 Biochemical Assay (TR-FRET probe displacement); assay type: binding
[1] = JH2 domain of human Tyk2, TR-FRET probe displacement
[2] = TR-FRET probe displacement, JH2 domain
[3] = TR-FRET probe displacement, JH2 domain of human Tyk2

Sequence of Tyk2 (P29597 whole entry, the tested form may be a part): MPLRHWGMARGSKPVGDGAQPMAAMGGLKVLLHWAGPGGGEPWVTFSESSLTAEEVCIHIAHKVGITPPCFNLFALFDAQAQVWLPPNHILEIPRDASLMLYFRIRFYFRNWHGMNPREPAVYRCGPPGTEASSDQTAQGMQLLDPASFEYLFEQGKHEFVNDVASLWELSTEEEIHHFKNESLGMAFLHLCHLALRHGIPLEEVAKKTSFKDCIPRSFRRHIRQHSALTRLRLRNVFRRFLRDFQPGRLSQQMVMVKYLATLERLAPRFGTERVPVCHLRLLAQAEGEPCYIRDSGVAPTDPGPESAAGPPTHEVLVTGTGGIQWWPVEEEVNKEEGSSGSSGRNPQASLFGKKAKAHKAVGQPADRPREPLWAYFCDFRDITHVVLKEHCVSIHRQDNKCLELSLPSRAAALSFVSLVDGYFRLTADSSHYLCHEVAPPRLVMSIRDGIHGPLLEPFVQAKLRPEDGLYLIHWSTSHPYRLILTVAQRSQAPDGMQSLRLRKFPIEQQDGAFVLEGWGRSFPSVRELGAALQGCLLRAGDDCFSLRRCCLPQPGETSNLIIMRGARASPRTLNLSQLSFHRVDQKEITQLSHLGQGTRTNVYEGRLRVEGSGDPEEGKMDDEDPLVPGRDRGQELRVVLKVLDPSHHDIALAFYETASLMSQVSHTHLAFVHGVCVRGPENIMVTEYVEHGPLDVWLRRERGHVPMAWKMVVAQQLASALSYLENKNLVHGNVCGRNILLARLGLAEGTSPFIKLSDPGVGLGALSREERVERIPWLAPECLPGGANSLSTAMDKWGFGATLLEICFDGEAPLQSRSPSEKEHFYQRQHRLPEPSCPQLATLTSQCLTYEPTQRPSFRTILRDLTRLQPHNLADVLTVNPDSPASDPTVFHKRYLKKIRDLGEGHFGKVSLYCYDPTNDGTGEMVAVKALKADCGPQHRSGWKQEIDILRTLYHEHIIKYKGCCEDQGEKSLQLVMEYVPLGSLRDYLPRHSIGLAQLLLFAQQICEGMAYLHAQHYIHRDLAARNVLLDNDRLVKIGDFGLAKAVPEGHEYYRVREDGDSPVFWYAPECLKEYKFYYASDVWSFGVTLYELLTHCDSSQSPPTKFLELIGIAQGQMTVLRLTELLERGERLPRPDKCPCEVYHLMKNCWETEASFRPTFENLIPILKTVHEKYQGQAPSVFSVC
Sequence of JH2 domain of human Tyk2 (P29597 575-876): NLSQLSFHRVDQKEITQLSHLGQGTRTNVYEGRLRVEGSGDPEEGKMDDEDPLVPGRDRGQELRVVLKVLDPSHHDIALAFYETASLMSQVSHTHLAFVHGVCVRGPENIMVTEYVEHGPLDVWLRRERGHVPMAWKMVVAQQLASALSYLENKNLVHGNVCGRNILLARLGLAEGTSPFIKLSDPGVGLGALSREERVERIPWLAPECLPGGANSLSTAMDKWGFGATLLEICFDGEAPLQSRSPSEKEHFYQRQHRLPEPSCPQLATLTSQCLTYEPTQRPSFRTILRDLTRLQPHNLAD

## COC(C)(C)COc1cnc(NC(C)=O)cc1Nc1cc(C)nc(C(C)(F)F)n1 [Example 492, N-(4-((2-(1,1-difluoroethyl)-6-methylpyrimidin-4-yl)amino)-5-(2-methoxy-2-methylpropoxy)pyridin-2-yl)acetamide]
Tyk2; MSD
  pIC50: 7.00 to 8.00
JH2 domain of human Tyk2; [1]
  pIC50: ≥ 8.00

## CC(=O)Nc1cc(Nc2cc(C)nc(C34COC(C3)C4)n2)c(-c2cc3n(n2)CC(F)(F)C3)cn1 [Example 564, N-(4-((2-(2-oxabicyclo[2.1.1]hexan-4-yl)-6-methylpyrimidin-4-yl)amino)-5-(5,5-difluorO5,6-dihydrO4H-pyrrolo[1,2-b]pyrazol-2-yl)pyridin-2-yl)acetamide]
Tyk2; MSD
  pIC50: ≥ 8.00
JH2 domain of human Tyk2; [1]
  pIC50: ≥ 8.00

## CC(=O)Nc1cc(Nc2cccc(C(C)(F)F)n2)c(-c2ccc(C#N)cn2)cn1 [Example 525, N-(5-cyanO4′-((6-(1,1-difluoroethyl)pyridin-2-yl)amino)-[2,3′-bipyridin]-6′-yl)acetamide]
Tyk2; MSD
  pIC50: 7.00 to 8.00
JH2 domain of human Tyk2; [1]
  pIC50: ≥ 8.00

## CC(=O)Nc1cc(Nc2cc(C)nc(C(C)(F)F)n2)c(OCCOC(C)C)cn1 [Example 482, N-(4-((2-(1,1-difluoroethyl)-6-methylpyrimidin-4-yl)amino)-5-(2-isopropoxyethoxy)pyridin-2-yl)acetamide]
Tyk2; MSD
  pIC50: 7.00 to 8.00
JH2 domain of human Tyk2; [1]
  pIC50: ≥ 8.00

## COc1cnc(NC(C)=O)cc1Nc1cc(-c2cn[nH]c2)nc(C(C)(F)F)n1 [Example 416, N-(4-((2-(1,1-difluoroethyl)-6-(1H-pyrazol-4-yl)pyrimidin-4-yl)amino)-5-methoxypyridin-2-yl)acetamide]
Tyk2; MSD
  pIC50: 6.00 to 7.00
JH2 domain of human Tyk2; [1]
  pIC50: ≥ 8.00

## CCOc1cnc(NC(C)=O)cc1Nc1cc(C)nc(C2CC2(C)C)n1 (racemic) [Example 518, rac-(R)-N-(4-((2-(2,2-dimethylcyclopropyl)-6-methylpyrimidin-4-yl)amino)-5-ethoxypyridin-2-yl)acetamide]
Tyk2; MSD
  pIC50: 6.00 to 7.00
JH2 domain of human Tyk2; [1]
  pIC50: ≥ 8.00

## COc1cnc(NC(C)=O)cc1Nc1cc(-c2ccncc2)nc(C(C)(F)F)n1 [Example 382, N-(4-((2-(1,1-difluoroethyl)-6-(pyridin-4-yl)pyrimidin-4-yl)amino)-5-methoxypyridin-2-yl)acetamide]
Tyk2; MSD
  pIC50: 7.00 to 8.00
JH2 domain of human Tyk2; [1]
  pIC50: 7.00 to 8.00

## COCC(C)COc1cnc(NC(C)=O)cc1Nc1cc(C)nc(C(C)(F)F)n1 (centres unmarked) [Example 440, N-(4-((2-(1,1-difluoroethyl)-6-methylpyrimidin-4-yl)amino)-5-(3-methoxy-2-methylpropoxy)pyridin-2-yl)acetamide]
Tyk2; MSD
  pIC50: 7.00 to 8.00
JH2 domain of human Tyk2; [1]
  pIC50: ≥ 8.00

## CC(=O)Nc1cc(Nc2cc(C)nc(C(C)(F)F)n2)c(-c2cn(C)nn2)cn1 [Example 607, N-(4-((2-(1,1-difluoroethyl)-6-methylpyrimidin-4-yl)amino)-5-(1-methyl-1H-1,2,3-triazol-4-yl)pyridin-2-yl)acetamide]
Tyk2; MSD
  pIC50: ≥ 8.00
JH2 domain of human Tyk2; [1]
  pIC50: ≥ 8.00

## COc1cc(Nc2ccnc(NC(C)=O)c2)nc(C(C)(F)F)n1 [Example 808, N-(4-((2-(1,1-difluoroethyl)-6-methoxypyrimidin-4-yl)amino)pyridin-2-yl)acetamide]
Tyk2
  pIC50: ≤ 6.00
JH2 domain of human Tyk2; [2]
  pIC50: 7.00 to 8.00

## CCS(=O)(=O)n1ccc(-c2cnc(NC(C)=O)cc2Nc2cc(C)nc(C(C)(F)F)n2)n1 [Example 542, N-(4-((2-(1,1-difluoroethyl)-6-methylpyrimidin-4-yl)amino)-5-(1-(ethylsulfonyl)-1H-pyrazol-3-yl)pyridin-2-yl)acetamide]
Tyk2; MSD
  pIC50: ≥ 8.00
JH2 domain of human Tyk2; [1]
  pIC50: ≥ 8.00

## CC(=O)Nc1cc(Nc2cc(C)nc(C(C)(F)F)n2)c(-c2csc(N3CCN(C)CC3)n2)cn1 [Example 771, N-(4-((2-(1,1-difluoroethyl)-6-methylpyrimidin-4-yl)amino)-5-(2-(4-methylpiperazin-1-yl)thiazol-4-yl)pyridin-2-yl)acetamide]
Tyk2
  pIC50: ≥ 8.00
JH2 domain of human Tyk2; [2]
  pIC50: ≥ 8.00

## CO[C@@H](C)COc1cnc(NC(C)=O)cc1Nc1cc(OC2CC2)nc(C(C)(F)F)n1 [Example 299, (S)-N-(4-((6-cyclopropoxy-2-(1,1-difluoroethyl)pyrimidin-4-yl)amino)-5-(2-methoxypropoxy)pyridin-2-yl)acetamide]
Tyk2; MSD
  pIC50: ≥ 8.00
JH2 domain of human Tyk2; [3]
  pIC50: ≥ 8.00

## CC(=O)Nc1cc(Nc2cc(C)nc(C(C)(F)F)n2)c(OCC2CCO2)cn1 (centres unmarked) [Example 85, N-(4-((2-(1,1-difluoroethyl)-6-methylpyrimidin-4-yl)amino)-5-(oxetan-2-ylmethoxy)pyridin-2-yl)acetamide]
Tyk2; MSD
  pIC50: 7.00 to 8.00
JH2 domain of human Tyk2; [3]
  pIC50: ≥ 8.00

## CC(=O)Nc1cc(Nc2cc(C)nc(C(C)(F)F)n2)c(-c2cccc(CN3CCOCC3)n2)cn1 [Example 650, N-(4′-((2-(1,1-difluoroethyl)-6-methylpyrimidin-4-yl)amino)-6-(morpholinomethyl)-[2,3′-bipyridin]-6′-yl)acetamide]
Tyk2; MSD
  pIC50: ≥ 8.00
JH2 domain of human Tyk2; [1]
  pIC50: ≥ 8.00

## CC(=O)Nc1cc(Nc2cc(C)nc(C(C)(F)F)n2)c(-c2cc(N(C)C)ccn2)cn1 [Example 627, N-(4′-((2-(1,1-difluoroethyl)-6-methylpyrimidin-4-yl)amino)-4-(dimethylamino)-[2,3′-bipyridin]-6′-yl)acetamide]
Tyk2; MSD
  pIC50: ≤ 6.00
JH2 domain of human Tyk2; [1]
  pIC50: 6.00 to 7.00

## CCC(COc1cnc(NC(C)=O)cc1Nc1cc(C)nc(C(C)(F)F)n1)OC (centres unmarked) [Example 424, N-(4-((2-(1,1-difluoroethyl)-6-methylpyrimidin-4-yl)amino)-5-(2-methoxybutoxy)pyridin-2-yl)acetamide]
Tyk2; MSD
  pIC50: 7.00 to 8.00
JH2 domain of human Tyk2; [1]
  pIC50: ≥ 8.00

## CC(=O)Nc1cc(Nc2cccc(C(C)(F)F)n2)c(-c2cc(=O)n(C)cn2)cn1 [Example 161, N-(4-((6-(1,1-difluoroethyl)pyridin-2-yl)amino)-5-(1-methyl-6-oxo-1,6-dihydropyrimidin-4-yl)pyridin-2-yl)acetamide]
Tyk2; MSD
  pIC50: 7.00 to 8.00
JH2 domain of human Tyk2; [3]
  pIC50: ≥ 8.00

## COC1(COc2cnc(NC(C)=O)cc2Nc2cc(C)nc(C(C)(F)F)n2)CCC1 [Example 493, N-(4-((2-(1,1-difluoroethyl)-6-methylpyrimidin-4-yl)amino)-5-((1-methoxycyclobutyl)methoxy)pyridin-2-yl)acetamide]
Tyk2; MSD
  pIC50: 7.00 to 8.00
JH2 domain of human Tyk2; [1]
  pIC50: ≥ 8.00

## CCc1cc(Nc2cc(NC(C)=O)ncc2-c2cnc(C3COCCO3)cn2)nc(C(C)(F)F)n1 (centres unmarked) [Example 898, N-(5-(5-(1,4-dioxan-2-yl)pyrazin-2-yl)-4-((2-(1,1-difluoroethyl)-6-ethylpyrimidin-4-yl)amino)pyridin-2-yl)acetamide]
Tyk2
  pIC50: ≥ 8.00
JH2 domain of human Tyk2; [2]
  pIC50: ≥ 8.00

## COc1ccc(-c2cnc(NC(C)=O)cc2Nc2cccc(C(C)(F)F)n2)nn1 [Example 526, N-(4-((6-(1,1-difluoroethyl)pyridin-2-yl)amino)-5-(6-methoxypyridazin-3-yl)pyridin-2-yl)acetamide]
Tyk2; MSD
  pIC50: 7.00 to 8.00
JH2 domain of human Tyk2; [1]
  pIC50: ≥ 8.00

## CC(=O)Nc1cc(Nc2ccnc(C(C)(F)F)n2)c(-c2ccc(N3CCC4(COC4)C3)nn2)cn1 [Example 890, N-(5-(6-(2-oxa-6-azaspiro[3.4]octan-6-yl)pyridazin-3-yl)-4-((2-(1,1-difluoroethyl)pyrimidin-4-yl)amino)pyridin-2-yl)acetamide]
Tyk2
  pIC50: ≥ 8.00
JH2 domain of human Tyk2; [2]
  pIC50: ≥ 8.00

## CCc1cc(Nc2cc(NC(C)=O)ncc2OCCN2CCN(C)CC2)nc(C(C)(F)F)n1 [Example 71, N-(4-((2-(1,1-difluoroethyl)-6-ethylpyrimidin-4-yl)amino)-5-(2-(4-methylpiperazin-1-yl)ethoxy)pyridin-2-yl)acetamide]
Tyk2; MSD
  pIC50: ≥ 8.00
JH2 domain of human Tyk2; [3]
  pIC50: ≥ 8.00

## COc1cnc(NC(C)=O)cc1Nc1cc(-c2ccc(F)c(C#N)c2)nc(C(C)(F)F)n1 [Example 394, N-(4-((6-(3-cyano-4-fluorophenyl)-2-(1,1-difluoroethyl)pyrimidin-4-yl)amino)-5-methoxypyridin-2-yl)acetamide]
Tyk2; MSD
  pIC50: 6.00 to 7.00
JH2 domain of human Tyk2; [1]
  pIC50: ≥ 8.00

## COC1CCN(c2ccc(-c3cnc(NC(C)=O)cc3Nc3ccnc(C(C)(F)F)n3)nn2)C1 (racemic) [Example 873, rac-(R)-N-(4-((2-(1,1-difluoroethyl)pyrimidin-4-yl)amino)-5-(6-(3-methoxypyrrolidin-1-yl)pyridazin-3-yl)pyridin-2-yl)acetamide]
Tyk2
  pIC50: ≥ 8.00
JH2 domain of human Tyk2; [2]
  pIC50: ≥ 8.00

## COc1ccc(-c2cnc(NC(C)=O)cc2Nc2cc(C)nc(C(C)(F)F)n2)nc1OC [Example 637, N-(4′-((2-(1,1-difluoroethyl)-6-methylpyrimidin-4-yl)amino)-5,6-dimethoxy-[2,3′-bipyridin]-6′-yl)acetamide]
Tyk2; MSD
  pIC50: ≥ 8.00
JH2 domain of human Tyk2; [1]
  pIC50: ≥ 8.00

## CCc1cc(Nc2cc(NC(C)=O)ncc2-c2ncc(F)cn2)nc(C(C)(F)F)n1 [Example 183, N-(4-((2-(1,1-difluoroethyl)-6-ethylpyrimidin-4-yl)amino)-5-(5-fluoropyrimidin-2-yl)pyridin-2-yl)acetamide]
Tyk2; MSD
  pIC50: 7.00 to 8.00
JH2 domain of human Tyk2; [3]
  pIC50: ≥ 8.00

## CC(=O)Nc1cc(Nc2cc(C)nc(C(C)(F)F)n2)c(OCc2cccnc2C)cn1 [Example 469, N-(4-((2-(1,1-difluoroethyl)-6-methylpyrimidin-4-yl)amino)-5-((2-methylpyridin-3-yl)methoxy)pyridin-2-yl)acetamide]
Tyk2; MSD
  pIC50: 6.00 to 7.00
JH2 domain of human Tyk2; [1]
  pIC50: ≥ 8.00

## CO[C@H]1C[C@H](Oc2cnc(NC(C)=O)cc2Nc2cc(C(C)C)nc(C(C)(F)F)n2)C1 [Example 408, N-(4-((2-(1,1-difluoroethyl)-6-isopropylpyrimidin-4-yl)amino)-5-((1r,3r)-3-methoxycyclobutoxy)pyridin-2-yl)acetamide]
Tyk2; MSD
  pIC50: ≥ 8.00
JH2 domain of human Tyk2; [1]
  pIC50: ≥ 8.00

## CCn1ccc(-c2cnc(NC(C)=O)cc2Nc2cc(C)nc(C(C)(F)F)n2)n1 [Example 613, N-(4-((2-(1,1-difluoroethyl)-6-methylpyrimidin-4-yl)amino)-5-(1-ethyl-1H-pyrazol-3-yl)pyridin-2-yl)acetamide]
Tyk2; MSD
  pIC50: ≥ 8.00
JH2 domain of human Tyk2; [1]
  pIC50: ≥ 8.00

## CC(=O)Nc1cc(Nc2cc(C)nc(C(C)(F)F)n2)c(OCC2(F)COC2)cn1 [Example 483, N-(4-((2-(1,1-difluoroethyl)-6-methylpyrimidin-4-yl)amino)-5-((3-fluorooxetan-3-yl)methoxy)pyridin-2-yl)acetamide]
Tyk2; MSD
  pIC50: 7.00 to 8.00
JH2 domain of human Tyk2; [1]
  pIC50: ≥ 8.00
